Consider 10 molecules from patent publication US20030144263A1, “Oxazolidinone derivatives, process for their preparation and pharmaceutical compositions containing them” (Syngenta Limited, priority 1998, published 2003).

SMILES strings stand for the structures. Values after ≈ are worked out from the molar mass of the structure shown. Read-outs that look alike come from different tables or passages of the source.

The test system of data set [1] is Staphylococcus aureus MRQR (methicillin resistant quinolone resistant). Kind of data set: MIC by agar-dilution, Staphylococcus aureus MRQR. The note with it: inoculum 10^4 CFU/spot, 37° C., 24 hours. The format is cell-based. Here is the method:
(§1) The following results were obtained on a standard in-vitro test system. The activity is described in terms of the minimum inhibitory concentration (MIC) determined by the agar-dilution technique with an inoculum size of 10^4 CFU/spot. Typically, compounds are active in the range 0.01 to 256 μg/ml.
(§2) Staphylococci were tested on agar, using an inoculum of 10^4 CFU/spot and an incubation temperature of 37° C. for 24 hours—standard test conditions for the expression of methicillin resistance.

Data set [2] has as its system Staphylococcus aureus Oxford. Kind of data set: MIC by agar-dilution, Staphylococcus aureus Oxford. The class given is cell-based. The settings on record: inoculum 10^4 CFU/spot, 37° C., 24 hours. On the procedure: as §1, §2
Data set [3] has as its system Coagulase Negative Staphylococci MR (methicillin resistant). Kind of data set: MIC by agar-dilution, Coagulase Negative Staphylococci MR. The settings on record: inoculum 10^4 CFU/spot, 37° C., 24 hours. The format is cell-based. On the procedure:
as §1, §2

Data set [4] has as its system Coagulase Negative Staphylococci MS (methicillin sensitive). In words: MIC by agar-dilution, Coagulase Negative Staphylococci MS. The class given is cell-based. The note with it: inoculum 10^4 CFU/spot, 37° C., 24 hours. Here is the method:
as §1, §2

The subject of another data set is Enterococcus faecalis. Kind of data set: MIC by agar-dilution, Enterococcus faecalis. The class given is cell-based. The note with it: agar with 5% defibrinated horse blood, 10^4 CFU/spot, 37° C., 5% carbon dioxide, 48 hours. On the procedure:
(§3) The following results were obtained on a standard in-vitro test system. The activity is described in terms of the minimum inhibitory concentration (MIC) determined by the agar-dilution technique with an inoculum size of 10^4 CFU/spot. Typically, compounds are active in the range 0.01 to 256 μg/ml. Streptococci and enterococci were tested on agar supplemented with 5% defibrinated horse blood, an inoculum of 10^4 CFU/spot and an incubation temperature of 37° C. in an atmosphere of 5% carbon dioxide for 48 hours—blood is required for the growth of some of the test organisms.

Data set [5] concerns Streptococcus pyogenes C203. In words: MIC by agar-dilution, Streptococcus pyogenes C203. The class given is cell-based. The settings on record: agar with 5% defibrinated horse blood, 10^4 CFU/spot, 37° C., 5% carbon dioxide, 48 hours. Here is the method:
as §3

The subject of a further data set is Bacillus subtilis. In words: MIC by agar-dilution, Bacillus subtilis. The class given is cell-based. The note with it: inoculum 10^4 CFU/spot. Here is the method:
as §1

Data set [6] relates to Staphylococcus aureus Novb. Res (Novobiocin resistant). Kind of data set: MIC by agar-dilution, Staphylococcus aureus Novb. Res. The class given is cell-based. The settings on record: inoculum 10^4 CFU/spot, 37° C., 24 hours. Here is the method: as §1, §2

For `O=C([C@@H](O)CO)N1CC=C(c2c(F)cc(N3C[C@H](COc4ccon4)OC3=O)cc2F)CC1` [Example 18, 5(R)-Isoxazol-3-yloxymethyl-3-(4-(1-(2(S),3-dihydroxypropanoyl)-1,2,5,6-tetrahydropyrid-4-yl)-3,5-difluorophenyl)oxazolidin-2-one], the MIC in [1] (read-out: MIC) was 0.5 µg/mL (≈ 1.07 µM); in data set [2] (read-out: MIC), 0.25 µg/mL (≈ 0.537 µM); in data set [3] (read-out: MIC), 0.5 µg/mL (≈ 1.07 µM); in data set [4] (read-out: MIC), 0.13 µg/mL (≈ 0.279 µM); in the data set with Enterococcus faecalis (read-out: MIC), 0.5 µg/mL (≈ 1.07 µM); in data set [5] (read-out: MIC), 0.25 µg/mL (≈ 0.537 µM). In addition, the MIC (in the data set on Bacillus subtilis (read-out: MIC); in [6] (read-out: MIC)) was 0.25 µg/mL (≈ 0.537 µM) each time.
`O=C1O[C@@H](COc2cnsn2)CN1c1ccc(N2C[C@@H]3C[C@H]2CN3Cc2ccccc2)c(F)c1` [Example 154, 5(R)-1 ,2,5-Thiadiazol-3-yloxymethyl-3-(4-((1 S)(4S)-2-benzyl-2,5-diazabicyclo{2.2.1}heptan-5-yl)-3-fluorophenyl)oxazolidin-2-one] showed a melting point of 97 to 98 °C.
Same read-out and setting: as for `O=C([C@@H](O)CO)N1CC=C(c2ccc(N3C[C@H](COc4ccon4)OC3=O)cc2)CC1` [Example 41, 5(R)-Isoxazol-3-yloxymethyl-3-(4-(1-(2(S),3-dihydroxypropanoyl)-1,2,5,6-tetrahydropyrid-4-yl)phenyl)oxazolidin-2-one], the figure is 200 to 202 °C (dec.); as for `O=C([C@H](O)CO)N1CC=C(c2ccc(N3C[C@H](COc4ccon4)OC3=O)cc2)CC1` [Example 40, 5(R)-Isoxazol-3-yloxymethyl-3-(4-(1-(2(R),3-dihydroxypropanoyl)-1,2,5,6-tetrahydropyrid-4-yl)phenyl)oxazolidin-2-one], 138 to 144 °C.
Take `O=C([C@@H](O)CO)N1CC=C(c2ccc(N3C[C@H](COc4ccon4)OC3=O)cc2F)CC1` [Example 12, 5(R)-Isoxazol-3-yloxymethyl-3-(4-(1-(2(S),3-dihydroxypropanoyl)-1,2,5,6-tetrahydropyrid-4-yl)-3-fluorophenyl)oxazolidin-2-one]: the MIC amounted to 0.5 µg/mL (≈ 1.12 µM) in data set [1] (read-out: MIC); 0.25 µg/mL (≈ 0.559 µM) in data set [2] (read-out: MIC); 0.5 µg/mL (≈ 1.12 µM) in data set [3] (read-out: MIC); 0.13 µg/mL (≈ 0.291 µM) in data set [4] (read-out: MIC); 1 µg/mL (≈ 2.24 µM) with Enterococcus faecalis (read-out: MIC); 0.5 µg/mL (≈ 1.12 µM) in data set [5] (read-out: MIC). The MIC in the data set with Bacillus subtilis (read-out: MIC) is 0.25 µg/mL (≈ 0.559 µM); in data set [6] (read-out: MIC), 0.5 µg/mL (≈ 1.12 µM).
Turning to `O=C1O[C@@H](COc2cnsn2)CN1c1ccc(C2=CCOCC2)c(F)c1` [Example 10, 5(R)-(1,2,5-Thiadiazol-3-yloxymethyl)-3-(3-fluoro-4-(3,6-dihydro-(2H)-pyran-4-yl)phenyl)oxazolidin-2-one], the melting point fell in the range of 46 to 48 °C.
`O=C1O[C@@H](COc2cnsn2)CN1c1ccc(C2=CCOCC2)c(F)c1` [Example 142, 5(R)-1,2,5-Thiadiazol-3-yloxymethyl-3-(4-[3,6-dihydro-(2H)-pyran-4-yl]-3-fluorophenyl)oxazolidin-2-one] displayed a melting point of 146 to 148 °C.
`O=C(CO)N1CC=C(c2ccc(N3C[C@H](COc4cnsn4)OC3=O)cc2F)CC1` [Example 151, 5(R)-1,2,5-Thiadiazol-3-yloxymethyl-3-(4-(1-hydroxyacetyl-1,2,5,6-tetrahydropyrid-4-yl)-3-fluorophenyl)oxazolidin-2-one]: the MIC in data set [1] amounted to 0.25 µg/mL (≈ 0.575 µM); in [2], 0.13 µg/mL (≈ 0.299 µM); in data set [3], 0.25 µg/mL (≈ 0.575 µM); in data set [4] it was 0.13 µg/mL (≈ 0.299 µM); against Enterococcus faecalis it was 0.25 µg/mL (≈ 0.575 µM); in data set [5], 0.25 µg/mL (≈ 0.575 µM). Further, the MIC is 0.13 µg/mL (≈ 0.299 µM) against Bacillus subtilis and 0.25 µg/mL (≈ 0.575 µM) in [6].
Take `CS(=O)(=O)c1ccc(N2C[C@H](COc3ccon3)OC2=O)cc1` [Example 163, 3-(4-Methylsulfonylphenyl)-5(R)-(isoxazol-3-yloxymethyl)oxazolidin-2-one]: the melting point came to 180 °C.
Turning to `O=C(C(O)CO)N1CC=C(c2c(F)cc(N3C[C@H](COc4ccon4)OC3=O)cc2F)CC1` (mixture of isomers) [Example 4, 5(R)-Isoxazol-3-yloxymethyl-3-(4-(1-(2(R,S),3-dihydroxypropanoyl)-1,2,5,6-tetrahydropyrid-4-yl)-3,5-difluorophenyl)-oxazolidin-2-one], the minimum inhibitory concentration (MIC) in data set [1] (read-out: MIC) was found to be 0.5 µg/mL; in [2] (read-out: MIC), 0.25 µg/mL; in [3] (read-out: MIC), 0.5 µg/mL; in data set [4] (read-out: MIC), 0.13 µg/mL; with Enterococcus faecalis (read-out: MIC) it was 1 µg/mL; in data set [5] (read-out: MIC), 0.5 µg/mL. The MIC in the data set with Bacillus subtilis (read-out: MIC) came to 0.25 µg/mL; in data set [6] (read-out: MIC), 0.5 µg/mL.
